Experimental data published in patent EP1199304A1, “Bicyclic compounds and pharmaceutical composition containing tricyclic compound for treating or preventing sleep disorders” (Takeda Chemical Industries, Ltd., priority 1997, dated 1997).

biological target: melatonin receptor; test: Inhibition of 2-[125I]iodomelatonin binding (forebrain membrane homogenate); design: species or system chicken (white leghorn); settings: forebrains of 7-day-old chicken; 80 pM 2-[^125I]iodomelatonin; 90 minutes at 25°C; non-specific binding with 10^-5M melatonin; log-probit analysis; read-out: IC50 (nM), Action of inhibiting 2-[^125I]iodomelatonin binding
Protocol: Inhibition of 2-[^125I]iodomelatonin binding activity
The forebrains of 7-day-old chicken (white leghorn) were homogenized with ice-cold assay buffer (50 mM Tris-HCl, pH 7.7 at 25°C) and centrifuged at 44,000 x g for 10 minutes at 4°C. The pellet was washed once with the same buffer and storred at -30°C until use. For the assay, the frozen tissue pellet was thawed and homogenized with the assay buffer to make a protein concentration of 0.3 - 0.4 mg/ml. An 0.4 ml aliquot of this homogenate was incubated with a test compound and 80 pM 2-[^125I]iodomelatonin in a total volume of 0.5 ml for 90 minutes at 25°C. The reaction was terminated by adding 3 ml of ice-cold assay buffer immediately followed by vaccum filtration on Whatman GF/B which was further washed twice with 3 ml of ice-cold assay buffer. The radioactivity on the filter was determined by means of γ-counter. […] The 50% inhibiting concentration (IC50) was determined by the log-probit analysis.

| SMILES | IC50 [nM] |
| --- | --- |
| CCC(=O)NCC[C@@H]1CCc2ccc3c(c21)CCO3 [Example 11, (S)-N-[2-(1,6,7,8-tetrahydro-2H-indeno[5,4-b]-furan-8-yl)ethyl]propionamide] | 0.048 |
| CCCC(=O)NCCC1CCc2ccc3c(c21)CCO3 (stereo not drawn) [Example 13, N-[2-(1,6,7,8-tetrahydro-2H-indeno[5,4-b]furan-8-yl)ethyl]butyramide] | 0.12 |
| CCC(=O)NCCC1CNc2ccc3c(c21)CCCO3 (stereo not drawn) [Example 7, N-[2-(1,2,3,7,8,9-hexahydropyrano[3,2-e]indol-1-yl)ethyl]propionamide] | 0.46 |
| CCCC(=O)NCCC1CNc2ccc3c(c21)CCCO3 (stereo not drawn) [Example 8, N-[2-(1,2,3,7,8,9-hexahydropyrano[3,2-e]indol-1-yl)ethyl]butyramide] | 0.22 |
| CC(=O)NCCC1=CCc2ccc3c(c21)CCO3 [Example 14, N-[2-(1,6-dihydro-2H-indeno[5,4-b]furan-8-yl)ethyl]acetamide] | 0.24 |
| CCC(=O)NCCc1c[nH]c2ccc3c(c12)CCCO3 [Example 4, N-[2-(3,7,8,9-tetrahydropyrano[3,2-e]indol-1-yl)ethyl]propionamide] | 0.13 |
| CCCC(=O)NCCc1c[nH]c2ccc3c(c12)CCCO3 [Example 5, N-[2-(3,7,8,9-tetrahydropyrano[3,2-e]indol-1-yl)ethyl]butyramide] | 0.082 |
| CC(=O)NCCC1CCc2ccc3c(c21)CCO3 (stereo not drawn) [Example 1, N-[2-(1,6,7,8-tetrahydro-2H-indeno[5,4-b]furan-8-yl)ethyl]acetamide] | 0.28 |
| CCCC(=O)NCCC1=CCc2ccc3c(c21)CCO3 [Example 16, N-[2-(1,6-dihydro-2H-indeno[5,4-b]furan-8-yl)-ethyl]butyramide] | 0.095 |
| CCC(=O)NCCC1=CCc2ccc3c(c21)CCO3 [Example 15, N-[2-(1,6-dihydro-2H-indeno[5,4-b]furan-8-yl)-ethyl]propionamide] | 0.1 |
| CCC(=O)NCCC1CCc2ccc3c(c21)CCO3 (stereo not drawn) [Example 2, N-[2-(1,6,7,8-tetrahydro-2H-indeno[5,4-b]furan-8-yl)ethyl]propionamide] | 0.13 |
| CC(=O)NCCc1c[nH]c2ccc3c(c12)CCCO3 [Example 3, N-[2-(3,7,8,9-tetrahydropyrano[3,2-e]indol-1-yl)ethyl]acetamide] | 0.46 |
